Data from ChEMBL document CHEMBL1201862, “PubChem BioAssay data set” (2004).
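1) Cells in 96-well plates. 2) Compound, 48 h, 5 concentrations. 3) Linear interpolation between surrounding doses. 4) Unreached endpoint = highest concentration. GI50 marks 50% less growth.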 Activity calls are given as the source filed them. Cut-off read from the data, not from the text of the source: active = GI50 up to about 1.1 µM and inactive = higher.

Legend:
Experiment in all cases: DTP human tumour cell line panel, 48 h
HCT-116 = tested on: HCT-116
CCRF-CEM = tested on: CCRF-CEM
NCI-H23 = tested on: NCI-H23
A498 = tested on: A498
UACC-62 = tested on: UACC-62
MCF7 = tested on: MCF7
MDA-MB-435 = tested on: MDA-MB-435
UO-31 = tested on: UO-31
TK-10 = tested on: TK-10
IGROV-1 = tested on: IGROV-1
BT-549 = tested on: BT-549
SR = tested on: SR
SN12C = tested on: SN12C
RXF 393 = tested on: RXF 393
SW-620 = tested on: SW-620
SK-MEL-28 = tested on: SK-MEL-28
NCI/ADR-RES = tested on: NCI/ADR-RES
SF-268 = tested on: SF-268

Measured: GI50

COc1c(-c2cccs2)oc2c(CC(=O)O)cccc2c1=O
inactive: HCT-116 > 100 µM | CCRF-CEM > 100 µM | NCI-H23 53.3 µM | A498 86.3 µM | UACC-62 > 100 µM | MCF7 > 100 µM | MDA-MB-435 > 100 µM | UO-31 10.3 µM | TK-10 > 100 µM | IGROV-1 > 100 µM | BT-549 > 100 µM | SR 56 µM | SN12C > 100 µM | RXF 393 > 100 µM

O=C(O)c1nn[nH]c1S
inactive: SW-620 > 100 µM | HCT-116 > 100 µM | CCRF-CEM > 100 µM | NCI-H23 > 100 µM | SK-MEL-28 > 100 µM | A498 > 100 µM | UACC-62 > 100 µM | MCF7 > 100 µM | NCI/ADR-RES > 100 µM | MDA-MB-435 > 100 µM | SF-268 > 100 µM | UO-31 > 100 µM | IGROV-1 > 100 µM | SR > 100 µM | SN12C > 100 µM | RXF 393 > 100 µM

CCOC(=O)C1=CN=C2C(=O)N(c3ccccc3)N(C)C2(C)C1=N (stereo not drawn)
inactive: SW-620 > 100 µM | HCT-116 > 100 µM | CCRF-CEM > 100 µM | NCI-H23 > 100 µM | SK-MEL-28 > 100 µM | A498 > 100 µM | UACC-62 > 100 µM | MCF7 > 100 µM | NCI/ADR-RES > 100 µM | MDA-MB-435 > 100 µM | UO-31 > 100 µM | TK-10 > 100 µM | IGROV-1 > 100 µM | BT-549 > 100 µM | SN12C > 100 µM | RXF 393 > 100 µM

Cc1ccc(C(=O)N/N=C(\N=N\c2cccc([N+](=O)[O-])c2)c2ccc(N(C)C)cc2)cc1
inactive: SW-620 > 100 µM | HCT-116 > 100 µM | CCRF-CEM 35 µM | NCI-H23 > 100 µM | SK-MEL-28 > 100 µM | MCF7 > 100 µM | NCI/ADR-RES 41.8 µM | MDA-MB-435 24.9 µM | SF-268 > 100 µM | UO-31 61.2 µM | TK-10 > 100 µM | IGROV-1 > 100 µM | BT-549 47.8 µM | SN12C > 100 µM

O=S1(=O)N=C(NCc2c[nH]c3ccccc23)N(c2ccccc2)c2ccncc21
inactive: SW-620 > 100 µM | HCT-116 > 100 µM | CCRF-CEM > 100 µM | NCI-H23 > 100 µM | SK-MEL-28 > 100 µM | A498 > 100 µM | UACC-62 > 100 µM | MCF7 > 100 µM | NCI/ADR-RES > 100 µM | MDA-MB-435 > 100 µM | SF-268 27.5 µM | UO-31 5.25 µM | TK-10 > 100 µM | BT-549 55.1 µM | SN12C 81.7 µM | RXF 393 > 100 µM

CNC(=S)/N=c1/sc(NC)nc2sc3c(c12)CCCC3
inactive: SW-620 > 100 µM | HCT-116 > 100 µM | CCRF-CEM > 100 µM | NCI-H23 > 100 µM | SK-MEL-28 > 100 µM | A498 > 100 µM | UACC-62 > 100 µM | MCF7 > 100 µM | MDA-MB-435 > 100 µM | SF-268 34.6 µM | UO-31 > 100 µM | TK-10 > 100 µM | IGROV-1 > 100 µM | BT-549 47.1 µM | SR > 100 µM | SN12C > 100 µM | RXF 393 22.5 µM

CCCCCCCCCCCCC(O)C(=O)O (stereo not drawn)
inactive: SW-620 > 100 µM | HCT-116 > 100 µM | CCRF-CEM > 100 µM | NCI-H23 > 100 µM | A498 > 100 µM | UACC-62 > 100 µM | MCF7 > 100 µM | NCI/ADR-RES > 100 µM | MDA-MB-435 > 100 µM | UO-31 > 100 µM | TK-10 > 100 µM | IGROV-1 > 100 µM | BT-549 > 100 µM | SN12C > 100 µM

Cn1nc(C(=O)N2CC(CCl)c3c2cc([N+](=O)[O-])c2ccccc32)cc1NC(=O)Nc1cc(C(=O)N2CC(CCl)c3c2cc([N+](=O)[O-])c2ccccc32)nn1C (stereo not drawn)
inactive: HCT-116 > 100 µM | NCI-H23 > 100 µM | SK-MEL-28 > 100 µM | A498 > 100 µM | UACC-62 > 100 µM | MCF7 > 100 µM | NCI/ADR-RES > 100 µM | MDA-MB-435 > 100 µM | SF-268 48.5 µM | UO-31 > 100 µM | TK-10 > 100 µM | BT-549 > 100 µM | SN12C > 100 µM

Cc1[nH]c(=O)[nH]c(=S)c1C(=O)NC(C)(CO)CO
inactive: SW-620 > 100 µM | HCT-116 > 100 µM | CCRF-CEM > 100 µM | NCI-H23 > 100 µM | SK-MEL-28 > 100 µM | A498 > 100 µM | UACC-62 > 100 µM | MCF7 > 100 µM | NCI/ADR-RES > 100 µM | MDA-MB-435 > 100 µM | SF-268 > 100 µM | UO-31 > 100 µM | TK-10 > 100 µM | IGROV-1 > 100 µM | SN12C > 100 µM | RXF 393 > 100 µM

Nc1nc(Cl)cc(OCC2(CO)CC=CC2)n1
inactive: SW-620 > 100 µM | HCT-116 > 100 µM | CCRF-CEM > 100 µM | NCI-H23 > 100 µM | SK-MEL-28 > 100 µM | A498 90.6 µM | MCF7 > 100 µM | NCI/ADR-RES > 100 µM | MDA-MB-435 > 100 µM | SF-268 > 100 µM | TK-10 > 100 µM | IGROV-1 > 100 µM | SR > 100 µM | SN12C > 100 µM | RXF 393 > 100 µM

CCOC(=O)C1C=C1C(C)(C)O (stereo not drawn)
inactive: SW-620 > 10 µM | CCRF-CEM > 10 µM | NCI-H23 > 10 µM | SK-MEL-28 > 10 µM | A498 > 10 µM | MCF7 > 10 µM | MDA-MB-435 > 10 µM | SF-268 > 10 µM | UO-31 > 10 µM | TK-10 > 10 µM | IGROV-1 > 10 µM | BT-549 > 10 µM | SR > 10 µM | SN12C > 10 µM | RXF 393 > 10 µM

COc1cc(OC)cc(-c2nc3cc(F)ccc3s2)c1
inactive: SW-620 > 100 µM | HCT-116 13.6 µM | CCRF-CEM > 100 µM | NCI-H23 12.9 µM | A498 19.1 µM | UACC-62 16.4 µM | MCF7 1.83 µM | NCI/ADR-RES > 100 µM | MDA-MB-435 > 100 µM | SF-268 13.8 µM | UO-31 31 µM | TK-10 15.8 µM | IGROV-1 12.3 µM | BT-549 11 µM | SN12C 36.4 µM | RXF 393 17 µM

CC(=O)Nc1ccc(-c2nc3ccccc3s2)cc1O
inactive: SW-620 84.5 µM | HCT-116 56.1 µM | CCRF-CEM 22.2 µM | NCI-H23 24.5 µM | SK-MEL-28 80.5 µM | A498 69.7 µM | UACC-62 18.1 µM | NCI/ADR-RES 17.1 µM | MDA-MB-435 37.8 µM | SF-268 27.8 µM | UO-31 19.6 µM | TK-10 32.4 µM | IGROV-1 20.9 µM | SR 61.9 µM | SN12C 30.4 µM | RXF 393 > 100 µM
